Values quoted from earlier work in patent US8106000B2, “Colonic delivery of adsorbents” (Da Volterra, priority 2005, dated 2012).

Settings: oral doses 1 to […]

Compound: O=C(O)c1cn(C2CC2)c2cc(N3CCNCC3)c(F)cc2c1=O [ciprofloxacin]
- expected residual ciprofloxacin in feces (% of oral doses): ≤ 25%
